Consider two compounds from US20100160454A1, “ANTIMICROBIAL AGENTS, COMPOSITIONS AND PRODUCTS CONTAINING THE SAME, AND METHODS OF USING THE COMPOSITIONS AND PRODUCTS” (Eastman Chemical Company, priority 2008, published 2010).

Structures are written as SMILES.

Common to all, as to format: cell-based
Assay [1] has as its system Aspergillus niger ATCC 16404. Kind of assay: Determination of MIC and MLC in test broth. The settings on record: Aspergillus niger ATCC 16404, 30-day subculture. Here is the method: (§1) Two antimicrobial endpoints were investigated. The minimum inhibitory concentration (MIC), which identifies the lowest concentration of test material at which growth for a specific organism is inhibited (by a minimum of 3 log units), reflects “biostatic activity”. The minimum lethal concentration (MLC), or lowest concentration that kills the organism and at which subculturing with growth is not possible, reflects “biocidal activity”. 1,4-CHDM and propylene glycol (PG) were added to previously sterilized screw-cap glass tubes and diluted with Peptone Water Broth with 2 wt % Dextrose (=test broth) to the following dilutions (weight percent): 0.05, 0.075, 0.125, 0.25, 0.5, 0.75, 1.25, 2.5, 5.0, 7.5, 10.0, 15.0, 20.0.
(§2) Each of 12 sets of the above test tubes were challenged with specific organisms (see Table 5) to produce a contamination of between 1.0×10^5 cfu/g and 1.0×10^6 cfu/g in the test broth to which no 1,4-CHDM or propylene glycol had been added. These challenge organisms were prepared in TSB broth, allowed to grow for 72 hours at 35° C.+/−2° C., centrifuged at 2500 rpm for 5 minutes, and the supernatant broth was removed. The microbial pellet was then re-diluted with sterile buffered water to a turbidity that matched previous 1.0×10^6 cfu/g concentrations of that organism's specific growth curve. This challenge was repeated on day 3. Plate counts of both challenges enumerated to within 1.0×10^5+/−5,000 cfu/g after 7 days incubation at 35° C.+/−2° C.
(§3) These tubes were mixed well by inversion (minimum of 25 inversions) and incubated at 35° C.+/−2° C. The tubes were inverted again (minimum of 25 times) on the third and seventh day of incubation and prior to each subculture.
(§4) These subcultures were incubated under optimal conditions and nutrition for no less than 5 days. Subcultures of 0.1 ml, undiluted and diluted 1:10, 1:100, . . . , and 1:10,000, were transferred to plates using the spread plate method onto Plate Count Agar; and SAB Dextrose Agar in addition for the Candida and Aspergillus species; and incubated as follows: 35° C.+/−2° C. for the Plate Count Agar and 22° C.+/−2° C. for the SAB Dextrose plates of Candida albicans and Aspergillus niger. Negative results were not reported before 7 days incubation and counts were performed after no less than 5 days incubation. Counts of Candida and Aspergillus species were made on the agar representing the highest count observed, usually the SAB Dextrose.

Assay [2] concerns Bacillus subtilis ATCC 6633. Kind of assay: Determination of MIC and MLC in test broth. The settings on record: Bacillus subtilis ATCC 6633, 30-day subculture. Here is the method: as §1, §2, §3, §4
In assay [3] the test system is Burkholderia cepacia ATCC 25416. Kind of assay: Determination of MIC and MLC in test broth. The settings on record: Burkholderia cepacia ATCC 25416, 30-day subculture. Here is the method: as §1, §2, §3, §4
Assay [4] has as its system Escherichia coli ATCC 25922. Kind of assay: Determination of MIC and MLC in test broth. Conditions: Escherichia coli ATCC 25922, 30-day subculture. The protocol:
as §1, §2, §3, §4

In assay [5] the test system is Pseudomonas aeruginosa ATCC 27853. Kind of assay: Determination of MIC and MLC in test broth. The settings on record: Pseudomonas aeruginosa ATCC 27853, 30-day subculture. The protocol: as §1, §2, §3, §4
Assay [6] has as its system Streptococcus pyogenes. Kind of assay: Determination of MIC and MLC in test broth. The settings on record: 30-day subculture. Here is the method: as §1, §2, §3, §4
For assay [7], the system named is Candida albicans Wild type. Kind of assay: Microbiological challenge testing in BPW broth, graded subculture counts. Conditions: C. albicans. The protocol: The microorganisms in the table below were used in challenge tests. They were either ATCC (American Type Culture Collection) or “wild type” as indicated. Wild type organisms were problematic organisms previously isolated from chemical products.
All of the microorganisms were grown in Tryptose Soy Broth (TSB), DIFCO™ available from Becton, Dickinson and Company, containing 1% dextrose. Candida albicans and Aspergillus niger, were incubated at 22° C.+/−2° C. for at least 96 hours. All bacteria were incubated at 35° C.+/−2° C. in a humidified incubator for at least 96 hours.
Candida albicans and Aspergillus niger were also grown on Sabouraud Dextrose Agar (SABD) at 22° C. for 7 to 14 days or until full sporulation was achieved.
The following procedure was followed to determine the amount of each challenge material (inoculum broth) needed to produce a 10^8 CFU/mL challenge, which is equivalent to a final test-sample microbial concentration of 10^5 to 10^6 CFU/mL (CFU=colony forming units).
Using a sterile pipette, 1 mL of the growth from each TSB culture was transferred into tubes of 9 mL buffered water (pH 7.2 phosphate buffer) and mixed thoroughly. This was repeated to make serial 1:10 dilutions. Then, 0.1 mL of each sample and dilution was inoculated onto agar plates to produce the equivalent of a further 1:10 dilution. (C. albicans and A. niger were inoculated onto SABD and bacteria were inoculated onto Plate Count Agar (PCA), DIFCO™ available from Becton, Dickinson and Company.) (The normal volume plated for most samples was 0.1 mL. Some samples that could be very low in micro-organisms (high dilutions) were plated using 0.5 mL of inoculum, in order to produce reproducible counts.) The samples were distributed on the plates using the spread-plate technique. The spread-plate technique is carried out by spreading the sample over the entire plate surface using a sterile spreading rod while rotating the plate with a rotary auto-plater. After the inoculum was absorbed completely by the agar, each plate was inverted and incubated (fungi at 22° C.+/−2° C. and bacteria at 35° C.+/−2° C.).
After incubation for at least 48 hours, colonies that had developed on the agar plates were counted (CFU) and recorded with the corresponding dilution. If counting had to be delayed temporarily, plates were refrigerated, preferably no more than 24 hours, until they could be counted. The number of CFU/mL was determined by multiplying the plate count by the dilution factor of the plate counted.
Turbidity in Nepholemetric Turbidity Units (NTU) was measured for each serial dilution using the HF-Micro 100 Model Turbidimeter. For each microorganism, the plate counts were compared to the turbidity readings.
On the day of challenge, the Candida albicans inoculum broth was poured through nonabsorbent sterile gauze and centrifuged. The […] was then diluted with buffered water (pH 7.2 phosphate buffer) until the desired turbidity was reached. Using a hemocytometer, a determination was made whether the challenge contained the desired concentration. Dilutions were made through 1.0×10^8 and three SABD spread plates were inoculated with 0.1 mL of each dilution. The plates were incubated for at least 48 hours and challenge counts were confirmed.
Control substrates (“broth alone”) were prepared for each microorganism separately in triplicate by adding 13.5 mL of Buffered Peptone Water broth (BPW) containing 1% dextrose to each 20-mL glass tube, then adding 1.5 mL challenge material to produce a final concentration at time zero of 10^5 to 10^6 CFU/mL and a total volume of 15 mL.

Consider `CC(O)CO` (stereo not drawn) [PG, propylene glycol], for which the “MIC 30 DAYS” value came out at 20 wt % in assay [1]; 10 wt % in assay [2]; 10 wt % in assay [3]; 10 wt % in assay [4]; 10 wt % in assay [5]; 20 wt % in assay [6]. The “MLC 30 DAYS” value in assay [1], in assay [2], in assay [3], in assay [4], in assay [5] and in assay [6] was more than 20 wt % throughout. Moreover, the Grade was 5 (More than 10,000 colonies estimated (thus more than 100,000 CFU/mL)) in assay [7] (0.5% (wt/vol), 3 day); 5 (More than 10,000 colonies estimated (thus more than 100,000 CFU/mL)) in assay [7] (0.5% (wt/vol), 14 day); 5 (More than 10,000 colonies estimated (thus more than 100,000 CFU/mL)) in assay [7] (0.5% (wt/vol), 30 day); 5 (More than 10,000 colonies estimated (thus more than 100,000 CFU/mL)) in assay [7] (1.25% (wt/vol), 3 day); 5 (More than 10,000 colonies estimated (thus more than 100,000 CFU/mL)) in assay [7] (1.25% (wt/vol), 14 day); 5 (More than 10,000 colonies estimated (thus more than 100,000 CFU/mL)) in assay [7] (1.25% (wt/vol), 30 day). Moreover, the Grade was 4 (1000 to 10,000 colonies countable (thus 10,000 CFU/mL to 100,000 CFU/mL)) in assay [7] (2.5% (wt/vol), 3 day); 4 (1000 to 10,000 colonies countable (thus 10,000 CFU/mL to 100,000 CFU/mL)) in assay [7] (2.5% (wt/vol), 14 day); 4 (1000 to 10,000 colonies countable (thus 10,000 CFU/mL to 100,000 CFU/mL)) in assay [7] (2.5% (wt/vol), 30 day); 3 (100 to 1000 colonies (thus 1000 to 10,000 CFU/mL)) in assay [7] (5.0% (wt/vol), 3 day); 4 (1000 to 10,000 colonies countable (thus 10,000 CFU/mL to 100,000 CFU/mL)) in assay [7] (5.0% (wt/vol), 14 day); 4 (1000 to 10,000 colonies countable (thus 10,000 CFU/mL to 100,000 CFU/mL)) in assay [7] (5.0% (wt/vol), 30 day).
`OCC1CCC(CO)CC1` (stereo not drawn) [1,4-CHDM, 1,4-cyclohexanedimethanol]: the “MIC 30 DAYS” value in assay [1] turned out to be 2.5 wt %; in assay [2] it was 2.5 wt %; in assay [3], 1.25 wt %; in assay [4], 2.5 wt %; in assay [5] it was 2.5 wt %; in assay [6] it was 2.5 wt %. Besides, the “MLC 30 DAYS” value in assay [1] was more than 20 wt %; in assay [2], more than 20 wt %; in assay [3] it was 20 wt %; in assay [4], more than 20 wt %; in assay [5] it was 20 wt %; in assay [6] it was 20 wt %. Besides, the Grade in assay [7] (0.5% (wt/vol), 3 day) is 3 (100 to 1000 colonies (thus 1000 to 10,000 CFU/mL)); in assay [7] (0.5% (wt/vol), 14 day), 4 (1000 to 10,000 colonies countable (thus 10,000 CFU/mL to 100,000 CFU/mL)); in assay [7] (0.5% (wt/vol), 30 day) it was 4 (1000 to 10,000 colonies countable (thus 10,000 CFU/mL to 100,000 CFU/mL)); in assay [7] (1.25% (wt/vol), 3 day), 1 (0 to 51 colonies counted (thus 10 to 510 CFU/mL based on 0.1-mL sample)); in assay [7] (1.25% (wt/vol), 14 day), 3 (100 to 1000 colonies (thus 1000 to 10,000 CFU/mL)); in assay [7] (1.25% (wt/vol), 30 day), 4 (1000 to 10,000 colonies countable (thus 10,000 CFU/mL to 100,000 CFU/mL)). Moreover, the Grade in assay [7] (2.5% (wt/vol), 3 day) is given as 0; in assay [7] (2.5% (wt/vol), 14 day), 2 (52 to 100 colonies counted (thus 520 to 1000 CFU/mL)); in assay [7] (2.5% (wt/vol), 30 day) it was 1 (0 to 51 colonies counted (thus 10 to 510 CFU/mL based on 0.1-mL sample)); in assay [7] (5.0% (wt/vol), 3 day), 0; in assay [7] (5.0% (wt/vol), 14 day) it was 0; in assay [7] (5.0% (wt/vol), 30 day), 0.
